Results published in patent EP1527784B1, “Method for extracting antineoplastic components from Bupleurum scorzonerifolium and composition comprising lactones” (Buddhist Tzu Chi General Hospital, priority 2003, dated 2005).
In brackets after ≈: the same amount, converted by molar mass.

How the values were obtained:
[1] = test system: A549-T12; assay: Annexin V-FLOUS / PI flow cytometry for apoptosis, Taxol-resistant cells; assay type: cell-based; settings: Homo sapiens, 48 hours, untreated group 6.8%, read-out: ratio of apoptotic tumor cell
Source text: (§1) The following embodiments are described with Taxol-resistant tumor cell A549-T12 (passage cultured from lung cancer cell line A549 cells with low concentration of taxol) as an example to test the effect of BS-A and its pure compounds (these represent chaihulactone and chaihulactone analogues). Flow cytometry, cytotoxicity, and biomolecular examinations are adopted to estimate the mechanism of Bupleurum scorzonerifolium extracts on Taxol-resistant tumor cells.
FIGs. […] Among these figures, X-axis represents the fluorescent brightness of tumor cells with antibody Annexin V-FLOUS whereas Y-axis represents the fluorescent brightness of tumor cell with antibody PI. […] This indicates isochaihulactone has better induction for apoptosis of Taxol-resistant tumor cell line than other chaihulactone analogues.

[2] = test system: tumor cells; settings: in two years; initial treatment stage; cited from earlier work
[3] = test system: A549-T12 cells; assay: MTT cytotoxicity assay on Taxol-resistant lung cancer cells; assay type: cell-based; settings: Taxol-resistant human lung cancer cell line A549-T12; read-out: concentration that causes 50% growth inhibition (IC50)
Source text: On the other hand, when the BS-AE containing γ-butyrolactone heterocyclic compounds, such as isochaihulactone and BS-AE are applied on Taxol-resistant tumor cell line, for example, human lung cancer cell line A549-T12, they also show anti-tumor effects on the resistant tumor cells. […] Furthermore, the tumor-suppressing effects of those Bupleurum scorzonerifolium extracts after isolated by the extraction method of this invention are more prominent.
as §1
Furthermore, a lower dose (2-4 µg/ml) of isochaihulactone is required to induce apoptosis on A549-T12 cells than that of A549 cells (8-10 µg/ml).

[4] = test system: A549 cells; assay: Annexin V-FLOUS / PI flow cytometry for apoptosis; assay type: cell-based; settings: Homo sapiens, 48 hours, untreated group 3.8%, read-out: proportion of cell death (apoptosis)
Method: In A549 cells, 20 µM of Isochaihulactone and 60 µg/ml of BS-AE are added to A549 cell line. After 48 hours of treatment, flow cytometry is utilized to detect the staining results between Annexin V-FLOUS and PI. In FIGs. 3A through to 3C, X-axis represents the fluorescent brightness of tumor cells with antibody Annexin V-FLOUS, and Y-axis represents the fluorescent brightness of tumor cells with antibody PI. From the diagrams, it was shown that the untreated group has only 3.8% of apoptosis, whereas A549 cells treated with Isochaihulactone and BS-AE has much higher proportion of cell death (about 30-40%).

[5] = test system: A549 cells; assay: Cell cycle analysis by flow cytometry (PI); assay type: cell-based, human; settings: FIG. 4; concentration not given
Method: Furthermore, flow cytometry is employed to observe the changes in cell cycle before and after the addition of different extracts from Bupleurum scorzonerifolium to A549 cells. In figures 2A through to 2D, X-axis represents chromosome numbers (2N, 4N, etc.) of tumor cells in contact with the antibody, Y-axis represents the fluorescent brightness of Propidium Iodide (PI). It is clearly noted that before treatment lung cancer cell line A549 is mainly at stage of G0/G1, but when 60 µg/ml of BS-AE and 600 µg/ml of BS-ME are added to the tumor cells, the tumor cells are arrested at G2/M stage. This is particularly the case for BS-ME.

[6] = test system: p21; assay: Western blotting of tumor suppressor p21; assay type: cell-based, human; settings: A549 cells, FIG. 5, 1 day or 3 days
[7] = test system: p53; assay: Western blotting of tumor suppressor p53; assay type: cell-based, human; settings: A549 cells, FIG. 5, 1 day or 3 days
[8] = test system: β-tubulin; assay: Immunoblot of soluble and particular (polymerized) β-tubulin in A549 cells; assay type: cell-based, human; settings: FIG. 7
[9] = test system: human hepatoma cell line J5, ovarian cancer cell line OVCAR-3, human malignant glioblastoma cell line DBTRG-05MD, lung cancer cell line A549 and colorectal …; assay: MTT cytotoxicity screening of extracts and components on a tumor cell line panel; assay type: cell-based; settings: MTT assay / drug screening; Table 1 cited but not given
Method: Each of the aforementioned heterocyclic compounds from each extract as well as the acetone crude extracts of Bupleurum scorzonerifolium are assayed to measure the antineoplastic activity. It was shown that majority of antineoplastic components of Bupleurum scorzonerifolium are retained in the BS-AE and BS-ME. The BS-HE and BS-CE hardly have any tumor-suppressing effects. Besides, the extracts can be further purified using chromatography method (e.g. low pressure liquid chromatography or high performance liquid chromatography (HPLC)), such that fractions are collected separately after each elution to obtain the pure compounds mentioned above.
Moreover, from chemical analysis of the main representative molecular structure of the eighth component, it was observed that the compound shares a common feature shown in formula (I) as having a γ-butyrolactone-centred heterocyclic compound with Z configuration or E configuration at carbon 2(5), or pharmacologically compatible salts, esters, ketones or their derivatives. [drawing 19] where the heterocyclic compound may have a 3R or 3S configuration, X can be N, O, S, or Se, andA, B can be selected from the following substituents: [drawing 20] where R1, R2, R3, R4, R5 can be selected from hydrogen atom, a halogen atom, a hydroxyl group, a sulfoxyl group, an amino group, a methoxyl group, and a nitro group. […]

Row | Structure (SMILES) | cytotoxicity at 8 µg/mL [1] | improvement of survival rate of the patient [2] | IC50 [3] | cytotoxicity at 20 µM [4] | cell cycle stage of tumor cells [5] | expression level of tumor suppressor p21 [6] | expression level of tumor suppressor p53 [7] | particular form (polymerized β-microtubule) [8] | soluble form (non-polymerized β-microtubule) [8] | antineoplastic effect (comparison among extracts and components) [9]
1 | COc1ccc(/C=C2\C(=O)OC[C@@H]2Cc2ccc3c(c2)OCO3)cc1OC [BS-15, Isokaerophyllin] | 23.1% |  |  |  |  |  |  |  |  | 
2 | CC(=O)O[C@H]1C(=O)[C@@]2(C)[C@H]([C@H](OC(=O)c3ccccc3)[C@]3(O)C[C@H](OC(=O)[C@H](O)[C@@H](NC(=O)c4ccccc4)c4ccccc4)C(C)=C1C3(C)C)[C@]1(OC(C)=O)CO[C@@H]1C[C@@H]2O [Taxol, Paclitaxel] |  | about 15% |  |  |  |  |  |  |  | 
3 | COc1cc(/C=C2\C(=O)OC[C@@H]2Cc2ccc3c(c2)OCO3)cc(OC)c1OC [isochaihulactone, Isochaihulactone] | 30.6% |  | 2 to 4 µg/mL (≈ 5.02 to 10 µM) | 30 to 40% | arrest at the stage G2/M | increase in expression level | increase in expression level | increases | significantly diminishes | most prominent anti-tumor effects
